Results from PMC10053440, “Semi-Synthesis and Biological Evaluation of 25(R)-26-Acetoxy-3β,5α-Dihydroxycholest-6-One” (Marine Drugs, 2023).

Experiments:
A-673 (Ewing sarcoma) = assay: CCK-8 anti-proliferation assay, A-673; type: cell-based; conditions: Homo sapiens, 48 h, mean ± SEM, read-out: Inhibition Rate (%); for inhibition at 20 µM: A673, at 20 µM
Protocol: (§1) One concentration was set for each sample during preliminary screening and three multiple holes were set for each concentration. Eight concentration gradients were set for each sample for IC50 determination and three multiple holes were set for each concentration. […] The absorbance was measured at 450 nm with an enzyme labeling instrument and the original data and results were recorded. […] Doxorubicin was used as a positive control. All the cancer cell lines were obtained from Qingdao AC biotechnology Co., LTD, Qingdao, China.

[1] = system: CAL-62 (human thyroid anaplastic carcinoma cell); assay: CCK-8 anti-proliferation assay, CAL-62; type: cell-based; conditions: 48 h, mean ± SEM, read-out: Inhibition Rate (%)
Protocol: as §1

[2] = system: A549 (human lung adenocarcinoma cell); assay: CCK-8 anti-proliferation assay, A549; type: cell-based; conditions: A549, 48 h, mean ± SEM, read-out: Inhibition Rate (%)
Protocol: as §1

[3] = system: HCT 116 (human colorectal cancer cell); assay: CCK-8 anti-proliferation assay, HCT 116; type: cell-based; conditions: 48 h, mean ± SEM, read-out: Inhibition Rate (%)
Protocol: as §1

[4] = system: L-02 (human hepatocyte cell); assay: CCK-8 anti-proliferation assay, L-02; type: cell-based; conditions: L-02 normal liver cells, 48 h, mean ± SEM, read-out: Inhibition Rate (%)
Protocol: as §1

[5] = system: GBC-SD (human gallbladder carcinoma cell); assay: CCK-8 anti-proliferation assay, GBC-SD; type: cell-based; conditions: 48 h, mean ± SEM, read-out: Inhibition Rate (%)
Protocol: as §1

[6] = system: 786-O (human renal cancer cell); assay: CCK-8 anti-proliferation assay, 786-O; type: cell-based; conditions: 48 h, mean ± SEM, read-out: Inhibition Rate (%); for inhibition at 20 µM: 786-0, at 20 µM
Protocol: as §1

[7] = system: 5637 (HTB-9) (human bladder cancer cell); assay: CCK-8 anti-proliferation assay, 5637 (HTB-9); type: cell-based; conditions: for IC50: CCK-8, 48 h, read-out: IC50 against 5637 (HTB-9) cells
Protocol: as §1

[8] = system: HepG2 (human liver carcinoma cell); assay: CCK-8 anti-proliferation assay, HepG2; type: cell-based; conditions: for IC50: CCK-8, 48 h, read-out: IC50 against HepG2 cells
Protocol: as §1

[9] = system: MKN-45 (human gastric cancer cell); assay: CCK-8 anti-proliferation assay, MKN-45; type: cell-based; conditions: 48 h, mean ± SEM, read-out: Inhibition Rate (%)
Protocol: as §1

[10] = system: MCF7 (human breast cancer cell); assay: CCK-8 anti-proliferation assay, MCF7; type: cell-based; conditions: 48 h, mean ± SEM, read-out: Inhibition Rate (%)
Protocol: as §1

[11] = system: TE-1 (human esophageal cancer cell); assay: CCK-8 anti-proliferation assay, TE-1; type: cell-based; conditions: 48 h, mean ± SEM, read-out: Inhibition Rate (%)
Protocol: as §1

[12] = system: PATU8988T (human pancreatic cancer cell); assay: CCK-8 anti-proliferation assay, PATU8988T; type: cell-based; conditions: PaTu 8988t, 48 h, mean ± SEM, read-out: Inhibition Rate (%)
Protocol: as §1

[13] = system: HeLa (human cervical cancer cell); assay: CCK-8 anti-proliferation assay, HeLa; type: cell-based; conditions: 48 h, mean ± SEM, read-out: Inhibition Rate (%)
Protocol: as §1

[14] = system: 293T (human embryonic kidney cell); assay: CCK-8 anti-proliferation assay, 293T; type: cell-based; conditions: HEK-293T, 48 h, mean ± SEM, read-out: Inhibition Rate (%)
Protocol: as §1

[15] = system: HOS (human osteosarcoma cell); assay: CCK-8 anti-proliferation assay, HOS; type: cell-based; conditions: 48 h, mean ± SEM, read-out: Inhibition Rate (%)
Protocol: as §1

[16] = system: SF126 (human glioblastoma cell); assay: CCK-8 anti-proliferation assay, SF126; type: cell-based; conditions: 48 h, mean ± SEM, read-out: Inhibition Rate (%); for inhibition at 20 µM: SF-126, at 20 µM
Protocol: as §1

[17] = system: DU145 (human prostate carcinoma cell); assay: CCK-8 anti-proliferation assay, DU145; type: cell-based; conditions: 48 h, mean ± SEM, read-out: Inhibition Rate (%); for inhibition at 20 µM: DU-145, at 20 µM
Protocol: as §1

[18] = system: K-562 (human myeloid leukemia cell); assay: CCK-8 anti-proliferation assay, K-562; type: cell-based; conditions: 48 h, mean ± SEM; for inhibition at 20 µM: K562, at 20 µM; for Inhibition Rate (%): at 20 µM
Protocol: as §1

[19] = system: A-375 (human melanoma cell); assay: CCK-8 anti-proliferation assay, A-375; type: cell-based; conditions: 48 h, mean ± SEM, read-out: Inhibition Rate (%)
Protocol: as §1

[20] = system: respiratory syncytial virus (RSV); assay: Anti-RSV activity assay (RT-qPCR); type: cell-based; conditions: human respiratory syncytial virus, HEp-2 cells, mean ± SEM, read-out: Inhibition rate (%) of RSV replication
Text: Remdesivir was selected and evaluated as a positive control.

[21] = system: respiratory syncytial virus (RSV); parameters: method as in PMID 24882250; conditions: read-out: anti-RSV IC50; cited from earlier work
[22] = 5637 (HTB-9), 48 h, mean ± SEM, read-out: Inhibition Rate (%)
[23] = 48 h, mean ± SEM, read-out: Inhibition Rate (%)
[24] = Homo sapiens, read-out: Inhibition Rate (%)

SMILES	inhibition at 10 µM [20]	IC50 [21]	inhibition at 20 µM (A-673 (Ewing sarcoma))	inhibition at 20 µM [1]	inhibition at 20 µM [3]	inhibition at 20 µM [4]	inhibition at 20 µM [5]	inhibition at 20 µM [6]	inhibition at 20 µM [7, 22]	inhibition at 20 µM [8, 23]	inhibition at 20 µM [9]	inhibition at 20 µM [10]	inhibition at 20 µM [11]	inhibition at 20 µM [12]	inhibition at 20 µM [13]	inhibition at 20 µM [14]	inhibition at 20 µM [15]	inhibition at 20 µM [16]	inhibition at 20 µM [17]	inhibition at 20 µM [18, 24]	also measured
COc1cccc2c1C(=O)c1c(O)c3c(c(O)c1C2=O)C[C@@](O)(C(=O)CO)C[C@@H]3O[C@H]1C[C@H](N)[C@H](O)[C@H](C)O1 [Doxorubicin, reference compound]																					inhibition at 10 µM (A-673 (Ewing sarcoma); A673, at 10 µM): 98.7 ± 0.6%; inhibition at 10 µM ([1]; at 10 µM): 92.6 ± 1.3%; inhibition at 10 µM ([2]; at 10 µM): 75.9 ± 2.5%; inhibition at 10 µM ([3]; at 10 µM): 88.9 ± 1.5%; inhibition at 10 µM ([4]; at 10 µM): 99.2 ± 0.1%; inhibition at 10 µM ([5]; at 10 µM): 76.7 ± 1.5%; inhibition at 10 µM ([6]; 786-0, at 10 µM): 86.3 ± 1.9%; inhibition at 10 µM ([7]; 5637 (HTB-9), at 10 µM, 48 h, mean ± SEM, read-out: Inhibition Rate (%)): 99.3 ± 0.3%; inhibition at 10 µM ([8]; at 10 µM, 48 h, mean ± SEM, read-out: Inhibition Rate (%)): 95.9 ± 1.9%; inhibition at 10 µM ([9]; at 10 µM): 89.8 ± 0.5%; inhibition at 10 µM ([10]; at 10 µM): 55.9 ± 1.7%; inhibition at 10 µM ([11]; at 10 µM): 83.3 ± 1.1%; inhibition at 10 µM ([12]; at 10 µM): 98.4 ± 0.6%; inhibition at 10 µM ([13]; at 10 µM): 97.7 ± 0.4%; inhibition at 10 µM ([14]; at 10 µM): 88.2 ± 1.2%; inhibition at 10 µM ([15]; at 10 µM): 98.4 ± 0.9%; inhibition at 10 µM ([16]; SF-126, at 10 µM): 97.1 ± 1%; inhibition at 10 µM ([17]; DU-145, at 10 µM): 76.4 ± 1.6%; inhibition at 10 µM ([18]; Homo sapiens, K562, at 10 µM, read-out: Inhibition Rate (%)): 67.5 ± 1%; inhibition at 10 µM ([19]; at 10 µM): 95.3 ± 1%
CCC(CC)COC(=O)[C@H](C)N[P@](=O)(OC[C@H]1O[C@@](C#N)(c2ccc3c(N)ncnn23)[C@H](O)[C@@H]1O)Oc1ccccc1 [Remdesivir, reference compound]	91.8 ± 0.5%																				
CC(=O)OC[C@@H](C)C/C=C/[C@@H](C)[C@H]1CC[C@H]2[C@@H]3CC(=O)[C@@]4(O)C[C@@H](O)CC[C@]4(C)[C@H]3CC[C@]12C [compound 1]		0.78 µM																			
CC(=O)OC[C@@H](C)[C@H](C)/C=C/[C@@H](C)[C@H]1CC[C@H]2[C@@H]3CC(=O)[C@@]4(O)C[C@@H](O)CC[C@]4(C)[C@H]3CC[C@]12C [compound 2]		0.19 µM																			
CC(=O)OC[C@H](C)[C@H](C)/C=C/[C@@H](C)[C@H]1CC[C@H]2[C@@H]3CC(=O)[C@@]4(O)C[C@@H](O)CC[C@]4(C)[C@H]3CC[C@]12C [compound 3]		0.19 µM																			
CC(=O)OCC(C)/C=C/[C@@H](C)[C@H]1CC[C@H]2[C@@H]3CC(=O)[C@@]4(O)C[C@@H](O)CC[C@]4(C)[C@H]3CC[C@]12C (some centres unmarked) [compound 4]		3.23 µM																			
C[C@@H](CO)CCC[C@@H](C)[C@H]1[C@@H](O)C[C@H]2[C@@H]3CC=C4C[C@@H](O)CC[C@]4(C)[C@H]3CC[C@]12C [compound 8, (3S,8S,9S,10R,13S,14S,16S,17R)-17-((2R,6R)-7-Hydroxy-6-Methylheptan-2-yl)-10,13-Dimethyl-2,3,4,7,8,9,10,11,12,13,14,15,16,17-Tetradecahydro-1H-Cyclopenta[a]Phenanthrene-3,16-diol]	24.9 ± 2.6%		51.9 ± 2.8%	28 ± 4%	61.7 ± 2.1%	8.1 ± 1.3%	26.8 ± 1.3%	69 ± 1.8%	75.1 ± 0.8%	76.8 ± 1.3%	54.4 ± 1.9%	31.2 ± 1.4%	34 ± 3.8%	62.7 ± 2%	49.7 ± 3.6%	42.4 ± 2.1%	2.7 ± 4%	30.7 ± 2.4%	26 ± 1.7%	7.2 ± 2.2%	inhibition at 20 µM [2]: 53 ± 2.7%; IC50 [7]: 5.8 µM; IC50 [8]: 12 µM; Inhibition Rate (%) [18]: did not exhibit any anti-proliferative activities; inhibition at 20 µM [19]: 72.3 ± 0.6%
C[C@@H](CO)CCC[C@@H](C)[C@H]1CC[C@H]2[C@@H]3CC=C4C[C@@H](O)CC[C@]4(C)[C@H]3CC[C@]12C [compound 11, (3S,8S,9S,10R,13R,14S,17R)-17-((2R,6R)-7-Hydroxy-6-Methylheptan-2-yl)-10,13-Dimethyl-2,3,4,7,8,9,10,11,12,13,14,15,16,17-Tetradecahydro-1H-Cyclopenta[a]Phenanthren-3-ol]	22.2 ± 3.9%		26.5 ± 2.1%	12.5 ± 3.9%	19.8 ± 1.4%	2.8 ± 2.1%	10.4 ± 3.3%	65.9 ± 2.4%	80.5 ± 2.5%	64.2 ± 2.5%	53.8 ± 1.6%	14.1 ± 0.5%	27.7 ± 0.6%	63.3 ± 4.2%	14.9 ± 2.2%	-18.2 ± 1.3%	9.3 ± 4.3%	11.7 ± 2.9%	18.4 ± 3.7%	13.1 ± 1.8%	inhibition at 20 µM [2]: ≤ 50%; IC50 [7]: 3 µM; IC50 [8]: 5.6 µM; Inhibition Rate (%) [18]: did not exhibit any anti-proliferative activities; inhibition at 20 µM [19]: 60.8 ± 1.4%
CC(=O)OC[C@H](C)CCC[C@@H](C)[C@H]1CC[C@H]2[C@@H]3C[C@@H](O)[C@@]4(O)C[C@@H](O)CC[C@]4(C)[C@H]3CC[C@]12C [compound 13, (2R,6R)-2-Methyl-6-((3S,5R,6R,8S,9S,10R,13R,14S,17R)-3,5,6-Trihydroxy-10,13-Dimethylhexadecahydro-1H-Cyclopenta[a]Phenanthren-17-yl) Heptyl Acetate]	13.6 ± 2.1%		66.3 ± 3.2%	7.5 ± 2.7%	19.3 ± 1.2%	6.3 ± 3.2%	6 ± 2.4%	20.5 ± 1.3%	52.2 ± 4.5%	58 ± 1.2%	52.7 ± 2.4%	19 ± 1.1%	13.5 ± 2.6%	53.6 ± 1.7%	-2.3 ± 1.7%	37.3 ± 2.7%	52.6 ± 1.5%	4.7 ± 1.3%	-0.4 ± 3.9%	7.8 ± 2.3%	melting point: 201 to 202 °C; Inhibition Rate (%) [18]: did not exhibit any anti-proliferative activities; inhibition at 20 µM [19]: 54.8 ± 1.7%
